# Experimental data reported in US6319910A, “Method for inhibiting cyclooxygenase-2 and tumor necrosis factor alpha” (Hospital for Joint Diseases, priority 1998, dated 2001).
# “Also recorded” adds a separate entry of the source. Like-named read-outs stand apart in the source and are kept apart here.
# Legend:
# COX-2 [1] = biological target: T1, COX-2 (Mus musculus, UniProt Q05769); assay: COX-2 specific activity in cell-free extracts of LPS-stimulated RAW 264.7 cells (PGE2 by RIA); type: biochemical, murine
# T1 construct: using total unfractionated cell extracts; endogenous in cells; host or cells: RAW 264.7 cells, LPS-induced; cell-free extract
# T1 sequence (Q05769 18-604): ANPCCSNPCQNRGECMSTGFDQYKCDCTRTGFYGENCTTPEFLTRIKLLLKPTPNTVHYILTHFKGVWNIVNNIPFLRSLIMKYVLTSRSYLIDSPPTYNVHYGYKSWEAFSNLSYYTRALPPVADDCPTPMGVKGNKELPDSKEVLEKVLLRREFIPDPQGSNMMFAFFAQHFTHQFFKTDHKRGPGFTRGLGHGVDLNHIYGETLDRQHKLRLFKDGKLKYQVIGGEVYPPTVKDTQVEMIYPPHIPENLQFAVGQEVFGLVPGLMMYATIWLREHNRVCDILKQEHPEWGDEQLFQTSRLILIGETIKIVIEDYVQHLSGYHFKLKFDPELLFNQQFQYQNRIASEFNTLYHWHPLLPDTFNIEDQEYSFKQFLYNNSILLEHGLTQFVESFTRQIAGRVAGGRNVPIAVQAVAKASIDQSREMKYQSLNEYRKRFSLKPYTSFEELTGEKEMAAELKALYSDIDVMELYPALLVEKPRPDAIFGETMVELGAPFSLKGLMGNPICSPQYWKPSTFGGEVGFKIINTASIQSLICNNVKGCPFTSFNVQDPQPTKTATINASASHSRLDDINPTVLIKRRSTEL
# Description: Raw 264.7 cells were stimulated with LPS and cell-free extracts were prepared as follows. RAW 264.7 cells were induced with LPS (100 ng/ml) in the presence or absence of tetracyclines or hydrocortisone for 14-20 hours. Following induction, the cells were pelleted at 4° C. and resuspended in Tris buffer: 10 mM, pH 7.4 containing 10 μg/ml each of chymostatin, antipain, leupeptin and pepstatin, 1 mM DDT and 1 mM PMSF. Cells were lysed in a Polytron PA 1200 homogenizer (Kinematica AG, Switzerland) with the cocktail of protease inhibitors after 3 cycles of rapid freeze-thawing. The lysate was centrifuged at 18,000 at 4° C. in an eppendorf centrifuge, and the resulting supernatant was used as cell-free extracts. The protein was measured by BCA assay reagent (Pierce, Rockford, Ill.) using BSA as standard. […] The specific enzyme activity was defined as ng of PGE2 released/mg protein/37° C. for 20 minutes.
# RAW 264.7 cells were stimulated with 1 μg/ml of LPS for 16 hours and cell-free extracts were prepared as described above. The extracts were incubated with different modulators for 20 minutes at 37° C. before adding the substrate to initiate the enzyme reaction, which was terminated after 30 minutes by heat inactivation. The data represent one of the two experiments, the PGE2 analysis from each sample was done in triplicates n=3. The p value is a comparison between control and experimentals.
# RAW 264.7 cells [2] = assay: Nitrite (NO) production/accumulation in LPS-stimulated RAW 264.7 cells; type: cell-based, murine; settings: LPS 100 ng/ml, 16 hours
# Description: (§1) Murine macrophages (RAW 263.7 cells) which were grown in Dulbecco's modified eagle medium (DMEM) containing 10% fetal bovine serum, 2 mM glutamine, 50 U/ml penicillin and 50 μg/ml streptomycin, were stimulated with 100 ng/ml LPS to induce both NOS and COX-2 at 16 hr. […] The data presented in FIG. 1 represents mean±SD as examined by T test were n=3.
# (§2) The effects of CMTs 1, 2, 3, 5 and 8 on PGE2 and NO accumulation in RAW 264.7 cells were further evaluated as described above for CMT-3. […]
# bovine chondrocytes [3] = assay: PGE2 production in LPS stimulated bovine chondrocytes (radioimmunoassay); type: cell-based; settings: FIGS. 3 and 9, words; for Effect on PGE2 production: LPS 100 μg/ml, 72 hrs
# Description: After 48 hours the medium was changed and the cells were incubated with CMT-3 or N-monomethyl arginine (NMMA) for 2 hours before stimulating them with 100 μg/ml LPS. DMSO was used as a carrier for the modulators and the DMSO concentration was maintained (<0.01% v/v) in the cultures. Equivalent amounts of DMSO was also added to the control cultures. The levels of COX-2 dependent PGE2 release was assayed after 72 hrs by radioimmunoassay. […] The data represents mean±SD which was evaluated by T test where n=3.
# iNOS mRNA = settings: Amin et al, 1997b; words; cited from earlier work
# COX-2 [4] = assay: COX-2 expression in cells/cartilage (general statement); type: cell-based; settings: words
# OA-affected cartilage [5] = assay: Spontaneous PGE2 release by OA-affected cartilage (ex vivo organ culture); type: cell-based, human; settings: for Effect on PGE2 production: human OA-affected cartilage, words
# Description: (§3) Human osteoarthritis affected cartilage spontaneously release nitric oxide (NO) and PGE2 in the medium as previously reported (Amin et al, 1995a; 1997a). The OA-organ cultures were set up as described (Amin et al, 1995a; 1997a). Briefly, total knee articular cartilage from tibial plateau and femoral condyle were harvested from OA-affected patients. The cartilage was mixed and cut into 3-mm discs and 4-6 discs were placed in triplicate or quadruplicate, in a 24-well plate in 2.0 ml of Ham's F-12 medium supplemented with 0.2% endotoxin free human albumin, 10 mM Hepes pH 7.4 and antibiotics in the presence of various modulators, as previously described (Amin et al, 1995a; 1997a). CMT-8 was used at pharmacologically relevant concentrations in DMSO (<0.01% final concentration) as carrier. An equivalent amount of DMSO was also added in the control cultures.
# (§4) The p value between control and CMT-8 treated values for PGE2≤0.1 (insignificant) whereas the p values between NMMA treated cartilage and CMT-8 treated cartilage was ≤0.001 (significant). The data are represented as mean±SD as examined by T test when n=3. Data represent±SD value as determined by Student's t test n=4. The P values described are compared with control unstimulated OA-cartilage. The data represents one of the two similar experiments. P values for PGE2 and Nitrite=^a≤0.5; ^b≤0.1; ^c≤0.05; ^d≤0.01.
# RAW 264.7 cells [6] = assay: PGE2 production/accumulation in LPS-stimulated RAW 264.7 cells; type: cell-based, murine; settings: for activation at 40 µg/mL: Mus musculus, RAW264.7, 16 h, printed in parentheses = increase
# Description: as §1, §2
# OA-affected cartilage [7] = assay: Spontaneous nitrite/nitric oxide release by OA-affected cartilage (ex vivo organ culture); type: cell-based, human; settings: for Effect on NO production: human OA-affected cartilage, words
# Description: as §3, §4
# bovine chondrocytes [8] = assay: Nitrite (NO) production in LPS stimulated bovine chondrocytes; type: cell-based; settings: FIGS. 3 and 9; LPS 100 μg/ml; words
# TNFα = TNFα release in the medium by HEK 293 cells permanently transfected with human proTNFα (ELISA); type: cell-based; settings: words; for Effect on spontaneous TNFα release: FIG. 8, 16 hours
# Description: HEK 293 cells were transfected with the proTNFα cDNA (wild) to prepare a stable cell line. […] A mutant form of proTNFα cDNA which could not be cleaved by the endogenous TNFα convertase (TACE) to release soluble TNFα was also transfected in separate human HEK 293 cells. The soluble TNFα was estimated by ELISA from the wild type and mutant transfected cells from the medium (FIG. 6).
# HEK 293 cells were grown as previously described by American Type Culture Collection (ATCC). […] The HEK 293 cells were incubated with CMT-3 to examine the effects of CMT-3 on TNFα release in the medium.
# HEK 293 cells were grown under the conditions previously described by ATCC. Various compounds, including CMT-3 and doxycycline/minocyclines were incubated with proTNFα transfected HEK 293 cells releasing TNFα in the medium at 16 hours. […] Soluble TNFα was estimated by ELISA from the medium.
# [9] = words; cited from earlier work
# OA = settings: prophylactic administration; Yu et al (1992); words; cited from earlier work
# NOS = settings: background; words; cited from earlier work
# OA-affected cartilage [10] = settings: Amin et al, 1997a; words; cited from earlier work
# OA-affected cartilage [11] = settings: Amin et al, 1997a; words; cited from earlier work; remark: listed apart in the source
# arthritis = settings: mild and moderate arthritis; Tilley et al, 1995; words; cited from earlier work
compound,measurement,setting,value
"C[C@H]1c2cccc(O)c2C(O)=C2C(=O)[C@]3(O)C(O)=C(C(N)=O)C(=O)C[C@@H]3[C@@H](O)[C@@H]21 [CMT-8, 6-α-deoxy-5-hydroxy-4-dedimethylaminotetracycline]",Effect on specific activity of COX-2,"COX-2 [1]; CMT-3 27 μM, CMT-8 27 μM, aspirin 56 μM, indomethacin 28 μM, words",significantly inhibited the specific activity of COX-2
same,COX-2 Specific Activity,"COX-2 [1]; Table 3, cell-free extracts, 10 μg (aspirin amount not given)",4.3 ± 0.1 PGE2 ng/mg protein
same,Nitrite,"RAW 264.7 cells [2]; Experiment I, compound 10 μg/ml",36.0 µM
same,inhibition at 10 µg/mL,"RAW 264.7 cells [2]; Mus musculus, RAW264.7, 16 h, Experiment I, compound 10 μg/ml",28%
same,Effect on PGE2 production,bovine chondrocytes [3],inhibit NO and PGE2 production
same,Effect on L-NMMA induced PGE2 up-regulation,bovine chondrocytes [3],inhibits the L-NMMA induced PGE2 up-regulation
same,Effect on iNOS mRNA expression,iNOS mRNA,inhibiting iNOS mRNA expression
same,Effect on COX-2 expression,COX-2 [4],inhibits COX-2 expression and PGE2 production
same,inhibition at 5 µg/mL,"OA-affected cartilage [5]; Homo sapiens, Table 2, 5 μg/ml",58%
same,PGE2,"OA-affected cartilage [5]; Table 2, 5 μg/ml",94.7 ± 39.2 ng/mL
same,Effect on PGE2 production,OA-affected cartilage [5],inhibits PGE2 in a dose dependent manner; also recorded: significantly inhibit; also recorded: inhibited both NO and PGE2 production; also recorded: inhibits COX-2 expression and PGE2 production
same,PGE2 accumulation,"RAW 264.7 cells [6]; 16 h, 10 ug/mL",27.2 ± 3.4 ng/mL
same,PGE2 accumulation,"RAW 264.7 cells [6]; Experiment II, LPS 100 ng/ml, compound 10 μg/ml, 16 hours",24.3 ± 4.5 ng/mL
same,inhibition at 5 µg/mL,"OA-affected cartilage [7]; Homo sapiens, Table 2, 5 μg/ml",40%
same,Nitrite,"OA-affected cartilage [7]; Table 2, 5 μg/ml",47.0 ± 22.0 µM
same,Effect on NO production,OA-affected cartilage [7],inhibits NOS and NO production; also recorded: significantly inhibit; also recorded: inhibited both NO and PGE2 production; also recorded: inhibiting NO production
same,Effect on NO production,bovine chondrocytes [8],inhibit NO and PGE2 production
same,Effect on spontaneous TNFα release,TNFα,inhibit the spontaneous TNFα release
same,Inhibition of TNFα (summary statement),"TNFα; HEK 293 cells transfected with proTNFα cDNA, low levels",inhibiting TNFα
same,Antimicrobial activity,[9],no antimicrobial activity
"C[C@H]1c2cccc(O)c2C(O)=C2C(=O)[C@]3(O)C(O)=C(C(N)=O)C(=O)[C@@H](N(C)C)[C@@H]3[C@@H](O)[C@@H]21 [Doxycycline, doxycycline, reference compound]",Effect on COX-2 expression,COX-2 [4],up-regulate COX-2 expression and PGE2 production
same,Effect on PGE2 production,OA-affected cartilage [5],up-regulate COX-2 expression and PGE2 production
same,Effect on NO production,OA-affected cartilage [7],inhibit NO production
same,Severity of OA,OA,markedly reduced the severity of OA
same,Effect on spontaneous TNFα release,TNFα,inhibit TNFα release
"CN=C(N)NCCC[C@H](N)C(=O)O [L-NMMA, N^G -monomethyl-L-arginine acetate, reference compound]",Effect on PGE2 production,NOS,augmenting PGE2 production
same,Effect on production of NO,NOS,inhibit the production of NO
same,Effect on NO production,"RAW 264.7 cells [2]; FIG. 1, words",blocks NO production
same,Effect on PGE2 production,bovine chondrocytes [3],augments PGE2 production
same,Effect on PGE2 production,OA-affected cartilage [10],augments PGE2 production
same,Effect on PGE2 production,"RAW 264.7 cells [6]; FIG. 1, LPS 100 ng/ml, 16 hours, words",augments PGE2 production
same,Effect on NOS and NO production,OA-affected cartilage [11],inhibits NOS and NO production
same,Effect on NO production,bovine chondrocytes [8],inhibits NO production
"CN(C)c1ccc(O)c2c1C[C@H]1C[C@H]3[C@H](N(C)C)C(O)=C(C(N)=O)C(=O)[C@@]3(O)C(O)=C1C2=O [Minocycline, minocycline, reference compound]",Nitrite,"RAW 264.7 cells [2]; Experiment I, minocycline 40 μg/ml",4.8 µM
same,Nitrite,"RAW 264.7 cells [2]; Experiment II, minocycline 40 μg/ml",12.9 µM
same,inhibition at 40 µg/mL,"RAW 264.7 cells [2]; Mus musculus, RAW264.7, 16 h, read-out: Nitrite % Inhibition, Experiment I, minocycline 40 μg/ml",90%
same,inhibition at 40 µg/mL,"RAW 264.7 cells [2]; Mus musculus, RAW264.7, 16 h, read-out: Nitrite % Inhibition, Experiment II, minocycline 40 μg/ml",41%
same,Effect on COX-2 expression,COX-2 [4],up-regulate COX-2 expression and PGE2 production
same,PGE2,"OA-affected cartilage [5]; Table 2, minocycline 10 μg/ml",314.6 ± 58.4 ng/mL
same,Effect on PGE2 production,OA-affected cartilage [5],stimulates PGE2 production
same,Effect on PGE2 production,OA-affected cartilage [5]; listed as minocycline,up-regulate COX-2 expression and PGE2 production
same,PGE2 accumulation,"RAW 264.7 cells [6]; Experiment I, LPS 100 ng/ml, minocycline 40 μg/ml, 16 hours",43.7 ± 8.6 ng/mL
same,PGE2 accumulation,"RAW 264.7 cells [6]; Experiment II, LPS 100 ng/ml, minocycline 40 μg/ml, 16 hours",49.1 ± 10.0 ng/mL
same,activation at 40 µg/mL,"RAW 264.7 cells [6]; read-out: PGE2 % (Increase), Experiment I, LPS 100 ng/ml, minocycline 40 μg/ml",172%
same,activation at 40 µg/mL,"RAW 264.7 cells [6]; read-out: PGE2 % (Increase), Experiment II, LPS 100 ng/ml, minocycline 40 μg/ml",257%
same,inhibition at 10 µg/mL,"OA-affected cartilage [7]; Homo sapiens, Table 2, minocycline 10 μg/ml",30%
same,Nitrite,"OA-affected cartilage [7]; Table 2, minocycline 10 μg/ml",66.0 ± 17.0 µM
same,Effect on NO production,OA-affected cartilage [7]; listed as minocycline,suppresses NO production; also recorded: inhibit NO production
same,Effect on spontaneous TNFα release,TNFα,inhibit TNFα release
same,Safety and efficacy in arthritis,arthritis,safe and effective for patients with mild and moderate arthritis
